This note sets out measurements from patent publication US20240327375A1, “SUBSTITUTED HETEROBICYCLIC DERIVATIVES AS NEGATIVE ALLOSTERIC MODULATORS OF MGLU7 RECEPTOR” (priority 2021, published 2024).

The structures appear in SMILES notation.

Broadly, the IC50 is the concentration needed to halve the response being measured.

T1 sequence (Q14831 35-922 isoform Q14831-2 limits assumed): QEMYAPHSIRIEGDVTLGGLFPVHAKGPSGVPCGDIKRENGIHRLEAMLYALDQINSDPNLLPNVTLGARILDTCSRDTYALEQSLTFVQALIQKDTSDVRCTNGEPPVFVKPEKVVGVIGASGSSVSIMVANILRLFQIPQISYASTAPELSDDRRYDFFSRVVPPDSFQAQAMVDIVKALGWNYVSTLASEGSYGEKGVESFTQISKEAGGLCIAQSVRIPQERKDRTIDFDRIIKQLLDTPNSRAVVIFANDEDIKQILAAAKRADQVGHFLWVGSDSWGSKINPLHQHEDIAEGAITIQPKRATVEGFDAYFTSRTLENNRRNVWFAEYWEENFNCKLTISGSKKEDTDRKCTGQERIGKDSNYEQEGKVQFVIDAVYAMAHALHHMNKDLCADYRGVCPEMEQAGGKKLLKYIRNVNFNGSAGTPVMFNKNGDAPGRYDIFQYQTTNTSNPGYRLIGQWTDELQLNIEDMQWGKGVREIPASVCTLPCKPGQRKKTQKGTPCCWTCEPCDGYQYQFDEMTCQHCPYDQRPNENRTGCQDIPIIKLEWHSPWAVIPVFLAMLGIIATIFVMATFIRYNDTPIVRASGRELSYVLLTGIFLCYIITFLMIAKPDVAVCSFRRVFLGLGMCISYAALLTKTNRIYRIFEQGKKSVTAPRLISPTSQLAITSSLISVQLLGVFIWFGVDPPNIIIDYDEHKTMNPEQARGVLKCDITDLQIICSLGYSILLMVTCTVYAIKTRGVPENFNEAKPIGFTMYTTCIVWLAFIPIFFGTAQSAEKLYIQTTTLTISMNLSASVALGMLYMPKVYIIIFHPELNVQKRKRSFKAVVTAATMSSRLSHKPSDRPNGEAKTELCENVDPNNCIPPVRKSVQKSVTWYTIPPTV

The assay addresses T1, human mGlu7 (Homo sapiens, UniProt Q14831).
T1 construct: expressed in transfected cells
Put plainly: mGlu7 assay on HEK-expressing human mGlu7: fluorescent cell-based Ca2+ mobilization (FLIPR384), inhibition of EC80 L-AP4 response. The following applies: HEK-293 cells expressing hmGlu7, EC80 L-AP4 stimulation; mean of at least three independent experiments in duplicate; read-out: Ca^2+ Flux (mean IC50). The text has this:
mGlu7 Assay on HEK-Expressing Human mGlu7
The cDNA encoding the human metabotropic glutamate 7 receptor (hmGlu7), (accession number NM_181874.2, NCBI Nucleotide database browser), was subcloned into an expression vector containing also the hygromycin resistance gene. In parallel, the cDNA encoding a G protein allowing redirection of the activation signal to intracellular calcium flux was subcloned into a different expression vector containing also the Puromycin resistance gene. Transfection of both these vectors into HEK293 cells with PolyFect reagent (Qiagen) according to supplier's protocol, and hygromycin and puromycin treatment allowed selection of antibiotic resistant cells which had integrated stably one or more copies of the plasmids. Positive cellular clones expressing hmGlu7 were identified in a functional assay measuring changes in calcium fluxes in response to glutamate and L-AP4 or known mGlu7 orthosteric antagonists.
HEK-293 cells expressing hmGlu7 were maintained in media containing DMEM, Fetal Bovine Serum (10%), Glutamax™ (2 mM), penicillin (100 units/mL), streptomycin (100 μg/mL), geneticin (100 μg/mL) and hygromycin-B (40 μg/mL) and puromycin (1 μg/mL) at 37° C. with 5% CO2 in a humidified atmosphere.
Fluorescent Cell Based- Ca^+ Mobilization Assay Human mGlu7 HEK-293 cells were plated out 24 hours prior to a fluorescent cell-based calcium mobilization assay using FLIPR^384 assay (Molecular Device, Sunnyvale, CA, USA) in black-walled, clear-bottomed, poly-L-ornithine-coated 384-well plates at a density of 25,000 cells/well in a glutamine/glutamate free DMEM medium containing fetal bovine serum (10%), penicillin (100 units/mL), streptomycin (100 μg/mL) and doxycyline (1 μg/ml) at 37° C. with 5% CO2 in a humidified atmosphere.
On the day of the assay, the medium was aspirated and the cells were loaded with a 3 μM solution of Fluo4-AM (LuBioScience, Lucerne, Switzerland) in 0.03% pluronic acid. After 1 hour at 37° C./5% CO2, the non incorporated dye was removed by washing cell plate with the assay buffer. All assays were performed in a pH 7.4 buffered-solution containing 20 mM HEPES, 143 mM NaCl, 6 mM KCl, 1 mM MgSO4, 1 mM CaCl2, 0.125 mM sulfinpyrazone and 0.1% glucose.
After 10 s of basal fluorescence recording, various concentrations of the compounds of the invention were added to the cells. Changes in fluorescence levels were first monitored for 180 s in order to detect any agonist activity of the compounds. Then the cells were stimulated by an EC80 L-AP4 concentration for an additional 110 s in order to measure inhibiting activities of the compounds of the invention. EC80 L-AP4 concentration is the concentration giving 80% of the maximal glutamate response.
The concentration-response curves of L-AP4 or representative compounds of the present invention were generated using the Prism GraphPad software (Graph Pad Inc, San Diego, USA). The curves were fitted to a four-parameter logistic equation: […]
allowing determination of IC50 values.
The Table 3 below represents the mean IC50 obtained from at least three independent experiments of selected molecules performed in duplicate.
For orientation: A change in cytosolic calcium serves as a functional read-out for many receptors and channels.
On to `CCn1ncc2cc(-c3ccc(C)cc3C)ccc2c1=O` [1-1, 6-(2,4-Dimethylphenyl)-2-ethylphthalazin-1(2H)-one], for which the concentration for half-maximal inhibition (IC50) lay within 100 to 1000 nM.

On to `CCn1ncc2cc(-c3c(C)cc(C)cc3C)ccc2c1=O` [1-2], for which the concentration for half-maximal inhibition (IC50) was 100 to 1000 nM. The value for `CCn1ncc2cc(-c3cccc(OC)c3)ccc2c1=O` [1-3] was 100 to 1000 nM. Take `Cc1ccc(-c2ccc3c(=O)n(-c4ccccc4F)ncc3c2)c(C)c1` [1-4, 6-(2,4-Dimethylphenyl)-2-(2-fluorophenyl)phthalazin-1(2H)-one]: the IC50 lay in the range of 100 to 1000 nM. As for `Cc1ccc(-c2ccc3c(=O)n(-c4ccccc4Cl)ncc3c2)c(C)c1` [1-5, 2-(2-Chlorophenyl)-6-(2,4-dimethylphenyl)phthalazin-1(2H)-one], the IC50 was in the range of 100 to 1000 nM. Regarding `CCn1ncc2cc(-c3cccc(N(C)C)c3)ccc2c1=O` [1-6], the IC50 lay in the range of 100 to 1000 nM. The value for `CCOc1cccc(-c2ccc3c(=O)n(CC)ncc3c2)c1` [1-7] was 100 to 1000 nM. Regarding `Cc1ccc(-c2ccc3c(=O)n(-c4ccc(S(C)(=O)=O)cc4)ncc3c2)c(C)c1` [1-8, 6-(2,4-Dimethylphenyl)-2-(4-(methylsulfonyl)phenyl)phthalazin-1(2H)-one], the IC50 was in the range of 100 to 1000 nM.

Consider `Cc1ccc(-c2ccc3c(=O)n(-c4ccccn4)ncc3c2)c(C)c1` [1-10], for which the IC50 was less than 100 nM. Take `CCn1ncc2cc(-c3cccc(N4CCC4)c3)ccc2c1=O` [1-11, 6-(3-(Azetidin-1-yl)phenyl)-2-ethylphthalazin-1(2H)-one]: the concentration for half-maximal inhibition (IC50) was less than 100 nM.

Take `CC(=O)c1ccc(-n2ncc3cc(-c4ccc(C)cc4C)ccc3c2=O)cc1` [1-12]: the 50% inhibitory concentration (IC50) lay within 100 to 1000 nM. For the compound `CCn1ncc2cc(-c3cccc(N4CCCC4)c3)ccc2c1=O` [1-13, 2-Ethyl-6-(3-(pyrrolidin-1-yl)phenyl)phthalazin-1(2H)-one], the half-maximal inhibitory concentration (IC50) lay in the range of 1000 to 10000 nM. Consider `Cc1ccc(-c2ccc3c(=O)n(-c4ccc(C(C)O)cc4)ncc3c2)c(C)c1` (stereo not shown) [1-14, 6-(2,4-Dimethylphenyl)-2-(4-(1-hydroxyethyl)phenyl)phthalazin-1(2H)-one], for which the IC50 lay in the range of 100 to 1000 nM.

Turning to `COc1ccc(-c2ccc3c(=O)n(-c4ccccn4)ncc3c2)cc1` [1-17], the IC50 lay in the range of 100 to 1000 nM. With `Cc1ccc(-c2ccc3c(=O)n(-c4ccncc4)ncc3c2)c(C)c1` [1-18], the IC50 lay in the range of 100 to 1000 nM. As for `COc1ccccc1-n1ncc2cc(-c3cccc(N4CCC4)c3)ccc2c1=O` [1-19], the IC50 lay within 100 to 1000 nM. To `O=c1c2ccc(-c3cccc(N4CCC4)c3)cc2cnn1Cc1ccccc1` [1-20] belongs 100 to 1000 nM. With `O=c1c2ccc(-c3cccc(N4CCC4)c3)cc2cnn1-c1ccc(F)cn1` [1-24, 6-(3-(Azetidin-1-yl)phenyl)-2-(5-fluoropyridin-2-yl)phthalazin-1(2H)-one], the IC50 was 100 to 1000 nM. Consider `COc1cccc(-c2ccc3c(=O)n(-c4ncccc4F)ncc3c2)c1` [1-29], for which the IC50 lay within 100 to 1000 nM. The value for `COc1cccc(-c2ccc3c(=O)n(-c4cc(C)ccn4)ncc3c2)c1` [1-30] was 100 to 1000 nM; that for `COc1cccc(-c2ccc3c(=O)n(-c4ncccn4)ncc3c2)c1` [1-31] was 100 to 1000 nM; that for `COc1cccc(-c2ccc3c(=O)n(-c4cccc(C)n4)ncc3c2)c1` [1-32] was 100 to 1000 nM. To `COc1cccc(-c2ccc3c(=O)n(-c4ccccn4)ncc3c2)c1Cl` [1-33] belongs less than 100 nM; to `O=c1c2ccc(-c3cccc(OC4CC4)c3Cl)cc2cnn1-c1ccccn1` [1-34], less than 100 nM; to `COc1cccc(-c2ccc3c(=O)n(-c4ccccn4)ncc3c2)c1C` [1-35], less than 100 nM. On to `Cc1c(OC2CC2)cccc1-c1ccc2c(=O)n(-c3ccccn3)ncc2c1` [1-36], for which the IC50 is less than 100 nM. To `CN1CCc2c(-c3ccc4c(=O)n(-c5ccccn5)ncc4c3)cccc21` [1-37] belongs less than 100 nM. The value for `O=c1c2ccc(-c3cccc(OC(F)F)c3)cc2cnn1-c1ccccn1` [1-38] was less than 100 nM; that for `CC(F)(F)c1cccc(-c2ccc3c(=O)n(-c4ccccn4)ncc3c2)c1` [1-39] was 100 to 1000 nM. To `COc1cccc(-c2ccc3c(=O)n(-c4ncccn4)ncc3c2)c1Cl` [1-40] belongs less than 100 nM; to `O=c1c2ccc(-c3cccc(OC4CC4)c3Cl)cc2cnn1-c1ncccn1` [1-41], 100 to 1000 nM.

With `COc1cccc(-c2ccc3c(=O)n(-c4ncccn4)ncc3c2)c1C` [1-42], the IC50 was less than 100 nM.

Regarding `Cc1c(OC2CC2)cccc1-c1ccc2c(=O)n(-c3ncccn3)ncc2c1` [1-43], the IC50 fell in the range of 100 to 1000 nM. To `CN1CCc2c(-c3ccc4c(=O)n(-c5ncccn5)ncc4c3)cccc21` [1-44] belongs less than 100 nM; to `O=c1c2ccc(-c3cccc(N4CCC4)c3)cc2cnn1-c1ccccn1` [1-45], less than 100 nM.

On to `O=c1c2ccc(-c3cccc(N4CCC4)c3)cc2cnn1-c1ncccn1` [1-46], for which the 50% inhibitory concentration (IC50) was less than 100 nM. The value for `O=c1c2ccc(-c3cccc4c3ccn4C3CC3)cc2cnn1-c1ccccn1` [1-47] was 1000 to 10000 nM; that for `O=c1c2ccc(-c3cccc4c3ccn4C3CC3)cc2cnn1-c1ncccn1` [1-48] was 100 to 1000 nM; that for `O=c1c2ccc(-c3cc(F)cc(N4CCC4)c3)cc2cnn1-c1ccccn1` [1-49] was 100 to 1000 nM.

As for `O=c1c2ccc(-c3nccc(N4CCC4)n3)cc2cnn1-c1ccccn1` [1-50], the IC50 was 1000 to 10000 nM.

Consider `O=c1c2ccc(-c3ccc(F)c(N4CCC4)c3)cc2cnn1-c1ccccn1` [1-51], for which the IC50 was 1000 to 10000 nM. The value for `O=c1c2ccc(-c3cc(N4CCC4)ccc3F)cc2cnn1-c1ccccn1` [1-52] was less than 100 nM. As for `O=c1c2ccc(-c3cc(N4CCC4)ccn3)cc2cnn1-c1ccccn1` [1-53, 6-(4-(Azetidin-1-yl)pyridin-2-yl)-2-(pyridin-2-yl)phthalazin-1(2H)-one], the IC50 lay in the range of 1000 to 10000 nM. Consider `COc1cccc(-c2ccc3c(=O)n(-c4ncc(C)cn4)ncc3c2)c1C` [1-54], for which the IC50 is less than 100 nM. To `COc1cnc(-n2ncc3cc(-c4cccc(OC)c4C)ccc3c2=O)nc1` [1-55] belongs less than 100 nM; to `Cc1cnc(-n2ncc3cc(-c4cccc5c4CCN5C)ccc3c2=O)nc1` [1-56], less than 100 nM; to `COc1cnc(-n2ncc3cc(-c4cccc5c4CCN5C)ccc3c2=O)nc1` [1-57], less than 100 nM. Consider `COc1cccc(-c2ccc3c(=O)n(-c4ncccc4F)ncc3c2)c1C` [1-58], for which the IC50 was less than 100 nM. Regarding `COc1cccc(-c2ccc3c(=O)n(C4CCOCC4)ncc3c2)c1C` [1-60], the IC50 fell in the range of 100 to 1000 nM. The value for `CN1CCCc2c(-c3ccc4c(=O)n(-c5ccccn5)ncc4c3)cccc21` [1-61] was less than 100 nM; that for `COc1cccc(-c2ccc3c(=O)n(-c4ncc(F)cn4)ncc3c2)c1C` [1-62] was less than 100 nM. `COc1cccc(-c2ccc3c(=O)n(-c4ncc(N5CCN(C)CC5)cn4)ncc3c2)c1C` [1-63]: the IC50 fell in the range of 100 to 1000 nM. For `COc1cccc(-c2ccc3c(=O)n(-c4ncc(N5CCOCC5)cn4)ncc3c2)c1C` [1-64], the IC50 was less than 100 nM.

As to `COc1cccc(-c2ccc3c(=O)n(-c4ncc(N5CCC(O)C5)cn4)ncc3c2)c1C` (stereo not shown) [1-65], the IC50 is less than 100 nM. In the case of `COc1cccc(-c2ccc3c(=O)n(CCN4CCOCC4)ncc3c2)c1C` [1-66], the IC50 was in the range of 100 to 1000 nM. Consider `COc1cccc(-c2ccc3c(=O)n(-c4ccc(SC)cn4)ncc3c2)c1C` [1-67], for which the IC50 lay within 100 to 1000 nM. To `COc1cccc(-c2ccc3c(=O)n(-c4ccc(S(C)(=O)=O)cn4)ncc3c2)c1C` [1-68] belongs 100 to 1000 nM. `COc1cccc(-c2ccc3c(=O)n(-c4ncc(OC5CNC5)cn4)ncc3c2)c1C` [1-69]: the IC50 lay within 100 to 1000 nM.

For the compound `COc1cccc(-c2ccc3c(=O)n(-c4ncc(N5CCCC5)cn4)ncc3c2)c1C` [1-70], the half-inhibitory concentration (IC50) was 100 to 1000 nM. Take `COc1cccc(-c2ccc3c(=O)n(-c4ncc(N5CCCCC5)cn4)ncc3c2)c1C` [1-71]: the half-maximal inhibitory concentration (IC50) was 100 to 1000 nM. On to `COc1cccc(-c2ccc3c(=O)n(-c4ncc(N5CCC(O)CC5)cn4)ncc3c2)c1C` [1-72], for which the IC50 was less than 100 nM.
